Assay: HBSAg ELISA assay: HepG2-Clone42 cells were seeded in into black clear-bottom 96-well plates at a concentration of 6.0×10^4 cells/well. 24 hours post-seeding, the cells were treated with 200 μl/well of media containing five-fold serial dilutions of compounds in DMSO. DMSO alone was used as the no drug control. The final DMSO concentration in all wells was 0.5%. The HBsAg ELISA kit (Alpha Diagnostic International, San Antonio, Tex., USE, Catalog #4110) was used to determine the level (semi-quantitative) of secreted HBV sAg.

Row | SMILES | EC50 [nM]
1 | COCCCOc1cc2c(cc1OC)-c1c(F)c(=O)c(C(=O)O)cn1C1[C@@H]2OCC1(C)C (stereo partly drawn) | 0.8
2 | COCCCOc1cc2c(cc1Cl)-c1cc(=O)c(C(=O)O)cn1[C@H]1[C@@H]2CCC1(C)C | 0.1
3 | COCCCOc1cc2c(cc1OC)-c1cc(=O)c(C(=O)O)cn1C1[C@@H]2COC1(C)C (stereo partly drawn) | 1
